From PubChem BioAssay AID449762 (Southern Research Specialized Biocontainment Screening …, 2010)
Results filed as inconclusive are left out.

Tested on: M. tuberculosis H37Rv growth inhibition, 7H9 media
Experiment: M. tuberculosis growth inhibition, HTS (AID 449762);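 further: bacterial growth assessed after seven days of incubation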
Conditions: for IC90: measured here: IC90 growth inhibition

| Compound | IC50 [µM] | IC90 [µM] |
| --- | --- | --- |
| CCNC(=S)NN=C1c2ccccc2-c2ccccc21 | 11.2 | 12.7 |
| CCOc1ccc(N(C(=O)/C=C/C(=O)Nc2cc(C)on2)C(C(=O)NC2CCCC2)c2ccccc2C)cc1 (configuration not stated) | 65.9 | > 100 |
| NC(=S)N/N=C/c1ccccc1OCCSc1ccc(Cl)cc1 | 45.7 | > 100 |
| O=C(Nc1cc(C(F)(F)F)ccc1Cl)C(Sc1cccc[n+]1[O-])c1ccccc1 (configuration not stated) | 39.2 | 47.9 |
| Cc1ccc(-n2cc(CNCCn3nc(C)cc3C)c(-c3ccc(F)cc3)n2)cc1 | 3.48 | 9.36 |
| C#C[C@]1(O)CC[C@H]2[C@@H]3CCc4cc(OC5CCCC5)ccc4[C@H]3CC[C@@]21C | 35.5 | 48 |
| Oc1ccccc1Nc1nc(NCc2ccccc2)c2ccccc2n1 | 16.1 | 21.1 |
| Cc1cc(/C=C\c2ccc3cc(N(C)C)ccc3[n+]2C)c(C)n1-c1ccccc1 | 1.86 | 3.19 |
| CNc1nc(SCc2ccccc2Cl)nc2c1CCCC2 | 0.73 | 2.52 |
| Cc1nonc1NC(=O)CSc1ccc(-c2ccccc2)nn1 | 21.1 | 52.9 |
| C#CCOc1ccc2c(c1)c(C(C)=O)c(C)n2Cc1ccccc1 | 68.4 | > 100 |
| O=c1[nH]c(=O)n(Cc2ccccc2)c2nc(-c3ccc(Oc4ccc(F)cc4)c([N+](=O)[O-])c3)n(CCO)c12 | 24.4 | > 100 |
| Cc1ccccc1-n1sc2cc(F)ccc2c1=O | 18.6 | 22.5 |
| O=C(NCCC1=CCCCC1)c1c(O)nc2sccn2c1=O | 72.8 | > 100 |
| CCCCN1C(=O)C2(NNc3ccccc3O2)c2ccccc21 (configuration not stated) | 57.5 | > 100 |
| COc1ccc(C(=O)C[n+]2ccc3c(c2)nc(-c2cc(OC)c(OC)cc2OC)n3C)cc1 | 10.5 | 13.4 |
| Cc1ccc(Cn2c(C(CO)Nc3nc(-c4ccc(F)cc4)cs3)nc3ccccc32)cc1 (configuration not stated) | 42.1 | 60.2 |
| COc1ccc2c3n(nc2c1)CCN=C3c1cc(Cl)c(N)c(Cl)c1 | 12.8 | 31.9 |
| COC(=O)Cn1nc(-c2ccccc2)c2cc(Cl)ccc21 | 8.72 | 51.7 |
| On1onc2c3cc(-c4ccccc4)nc3ccc21 | < 0.2 | < 0.2 |
| Cc1ccnc(NC(=O)c2cc3ccccc3o2)c1 | 43.9 | > 100 |
| CCOC(=O)COn1c2c(c3c4no[n+]([O-])c4ccc31)CCCC2 | 3.16 | 5.83 |

| Compound | IC50 [µM] | IC90 [µM] |
| --- | --- | --- |
| Cc1nc(SCC(=O)NCC2CCCO2)c2c3c(sc2n1)CCCC3 (configuration not stated) | 22.2 | 24.6 |
| Cc1ccc2nc(-c3ccncc3)cc(-c3ccccc3)c2c1 | 36.1 | 47.2 |
| NC1=NC[C@H](CC2CCCCC2)N1CCc1cc(C(F)(F)F)cc(C(F)(F)F)c1 | 8.9 | 11.6 |
| O=C(CCl)Nc1cn(-c2ccccc2)nc1-c1ccccc1 | < 0.2 | 1.15 |
| O=C(Cn1ncc(Cl)c(Cl)c1=O)c1ccc2c(c1)OCCO2 | 6.83 | 12.2 |
| COc1ccc(CNC(=O)c2c(N)n(CCCN3CCOCC3)c3nc4ccccc4nc23)cc1 | 94 | > 100 |
| CCOc1ccc(/C=C/C2=Cc3c(sc(NC(=O)CSc4n[nH]c(N)n4)c3C#N)C(C)(C)C2)cc1 | – | > 100 |
| COc1ccccc1C1CC(c2ccc(Cl)cc2)Nc2ncnn21 (configuration not stated) | 11 | 17.7 |
| Cc1nc([N+](=O)[O-])c(Br)n1CC(=O)c1ccc2ccccc2c1 | 2.15 | 11.9 |
| CCc1ccc(NC2=NCC(c3ccccc3)S2)cc1 (configuration not stated) | 3.03 | > 100 |
| Cc1onc(-c2c(F)cccc2Cl)c1C(=O)O/N=C(\N)c1ccc([N+](=O)[O-])o1 | 5.3 | 11 |
| COc1nc(-c2ccccc2)cc(-c2ccc(OC)c(OC)c2)n1 | 45.3 | > 100 |
| Cc1ccc(-n2c(C)cc(/C=N/NC(N)=S)c2C)cc1 | 12.7 | 24.6 |
| CCOC(=O)c1ccc(N=C2C(=S)N(c3ccc(C(=O)OCC)cc3)C(=N)N2/N=C/c2ccccc2)cc1 | 68.9 | > 100 |
| O=C(c1ccc(Br)cc1)C(CN1CCOCC1)c1ccccc1 (configuration not stated) | 4.73 | 9.41 |
| CCN(CC)CCOC(=O)c1ccc(N/C=C(/C#N)c2nc(-c3ccc4c(c3)OCO4)cs2)cc1 | 28.4 | 53.3 |
| Cc1ccc(C(=O)C2CCN(CC(=O)Nc3nc(C)cs3)CC2)cc1 | 13.6 | 25.2 |
| CC1=C(/C=C/C(C)=C/C=C/C(C)=C/C(=O)Nc2ccc(O)cc2)C(C)(C)CCC1 | 41.9 | 59.8 |
| COc1ccc(C(=O)OCC(=O)c2ccc(Br)s2)c(OC)c1 | 26 | > 100 |
| CC1(C)c2[nH]c3ccccc3c2C[C@@H]2C(=O)N(Cc3ccccc3F)C(=O)N21 | 47.1 | > 100 |
| Cc1ccc2nc3c(cc(C(=O)NCc4ccco4)c(=N)n3Cc3ccco3)c(=O)n2c1 | 31.9 | > 100 |
| COCc1cc(=O)[nH]c(Nc2nc3ccccc3o2)n1 | 1.6 | 7.06 |

| Compound | IC50 [µM] | IC90 [µM] |
| --- | --- | --- |
| CCOC(=O)c1ccc(NC2=CC(=O)C(=O)c3ccccc32)cc1 | 31.7 | 39.7 |
| O=C1NN(c2ccc(Br)cc2)C(=O)/C1=C\c1ccc(O)cc1O | 88.2 | > 100 |
| c1ccc2c(C3=NNC(=NC4CCCCC4)SC3)c[nH]c2c1 | 42.7 | 47.2 |
| CC(C)CCNC(=O)C(c1ccc(O)cc1)N(C(=O)C1COc2ccccc2O1)c1cccc(O)c1 (configuration not stated) | 71 | > 100 |
| Clc1ccc(-c2[nH]ncc2N=Nc2ccccc2)cc1 | 31.7 | > 100 |
| CCCNC(=S)Nc1ccc(Nc2ccccc2)cc1 | 31.7 | 52 |
| CC(C)(Oc1ccc(Cl)cc1)C(=O)OCC(=O)N1CCN(c2ccccc2)CC1 | 30.5 | 98.2 |
| O=C1C2C(C(=O)N1/N=C/c1ccc([N+](=O)[O-])o1)C1C=CC2C12CC2 (configuration not stated) | 19 | 29.6 |
| N#CC(C(=O)Nc1ccccc1)=C1Nc2ccccc2N1 | 34.9 | > 100 |
| CSCCOC(=O)COc1ccc(/C=N/NC(=O)c2c(Cl)cnn2C)cc1 | 9.04 | 22.6 |
| CNC(C)C#Cc1ccc2oc3cc(C)c(C)cc3c(=O)c2c1 (configuration not stated) | 4.55 | 17.9 |
| CCCCCCCCCCC[N+](C)(C)CC/C=C1/c2ccccc2Sc2ccc(Cl)cc21 | 7.04 | 8.09 |
| CCOC(=O)CSc1ccc(C(=O)Nc2ccc(OC)cc2)cn1 | < 0.2 | > 100 |
| CCOC(=O)CSc1nsc(SCC(=O)OCC)c1C#N | 11.9 | 13.6 |
| CCN(CC)c1ccc2nc3ccccc3[n+](CC)c2c1 | 2.71 | 5.66 |
| Cc1ccc(C(=O)OCc2nnc(-c3ccccc3)o2)s1 | 19 | 33.5 |
| COc1ccc(-c2csc3ncnc(N4CCN(c5ccccc5OC)CC4)c23)cc1 | 23.1 | 26.2 |
| O=C(c1cc(COc2ccc(F)cc2F)on1)N1CCCC(c2ccccc2)C1 (configuration not stated) | 17.6 | 39.8 |
| Cc1c2c(nc3ccccc13)CCC(C)C2 (configuration not stated) | 33.8 | 61.8 |
| Cc1cc(C)c(C)c(N=Nc2nc3ccccc3n2C)c1C | 6.16 | 6.93 |
| CC1(C)C2CCC1(C)C(OCC[N+](C)(C)CC(=O)OC1CCCCC1)C2 (configuration not stated) | 10.9 | 12.2 |
| COc1cc(NC(=O)c2cnc(N)s2)cc(C(=O)Nc2cccc(C(F)(F)F)c2)c1 | 52 | 78.8 |

| Compound | IC50 [µM] | IC90 [µM] |
| --- | --- | --- |
| CCN1/C(=C/C=C/c2oc3ccc(-c4ccccc4)cc3[n+]2CC)Oc2ccc(-c3ccccc3)cc21 | 3.74 | 4.74 |
| COc1ccc(-c2oc3ccc(-c4ccc(OC)nc4)cc3c2C#CC2(O)CCCCC2)cc1 | 96.2 | > 100 |
| COC(=O)CCc1nc2c(C#N)c(-c3ccc(Cl)cc3)ccn2n1 | 1.68 | 3.31 |
| COc1ccc(C(CCN2CCCCC2)c2c(OC)cc(OC)c3c(-c4ccccc4)cc(=O)oc23)cc1 (configuration not stated) | 15.1 | 22.4 |
| CCCOP(=O)(OCCC)c1c([N+](=O)[O-])cc(C(F)(F)F)cc1[N+](=O)[O-] | 3.88 | 6.52 |
| CCCCCCCCCCOC(=O)Cn1c(COc2ccc(Cl)cc2)[n+](C)c2ccccc21 | 11.8 | 13.3 |
| Clc1ccc(NNc2ccnc3cc(Cl)ccc23)cc1 | 16.8 | 21.5 |
| O=C1c2ccccc2S(=O)(=O)c2cc(C(=O)N3CCN(c4c(Cl)cncc4Cl)CC3)ccc21 | 32 | 46.5 |
| COC(=O)c1ccc(C(=O)OC)c(NC(=O)CSc2cccc[n+]2[O-])c1 | 2.97 | 3.37 |
| CC(=O)OCC1O[C@@H](O[C@@H]2C[C@H]3C(C)(C)[C@H](OC(C)=O)CC[C@]3(C)[C@H]3CC[C@]45C[C@]4(CC[C@H]5[C@@H](C)C[C@@H](O)[C@H](O)C(C)(C)O)[C@@]32C)[C@H](O)[C@@H](O)[C@@H]1O (some centres not stated) | 30.7 | 39.6 |
| O=C(Nc1nnc(C2=COCCO2)o1)c1ccc(Cc2ccccc2)cc1 | 3.26 | 9.81 |
| Cc1ccnc(NC(=O)COc2ccc3c(c2)CCC3)c1 | 40.2 | > 100 |
| CC12CCC(=O)N1C(C(=O)Nc1ccc(SC(F)F)cc1)CS2 (configuration not stated) | 30.2 | 63.1 |
| Cc1cc(NC(=O)c2cc(-c3ccncc3)nc3c(C)cccc23)no1 | 46.5 | > 100 |
| Nc1ccc(N=Nc2ccccc2)c2cccnc12 | 10.9 | 49.5 |
| Clc1ccc(CSc2ncn[nH]2)cc1 | – | > 100 |
| CC(C)[C@H](CO)N(Cc1cccc(F)c1)c1nc(Nc2cccc(Cl)c2)c2ncn(C(C)C)c2n1 | 23.2 | 35.4 |
| N#CC1=C(c2ccccc2)/C(=C/c2ccccc2)OC1=O | 10.2 | 20.1 |
| Cc1sc2ncnc(N3CCC(C(=O)N(CC(C)C)c4nc5ccccc5s4)CC3)c2c1C | 84.5 | > 100 |
| COc1ccc(/C=C2\CCC/C(=C\C=N\N(C)C)C2=O)cc1 | 8.19 | 16.2 |
| CCn1c(C)c(C)c2cc(C(=O)Nc3cccc(Cl)c3)ccc21 | 35 | > 100 |
